Measurements published in patent publication US12655114B2, “Ionizable lipid compounds and lipid nanoparticle compositions” (SunVax mRNA Therapeutics Inc., priority 2022, dated 2026).

Tested on: 293T cells
Assay: SamRNA-LUC transfection efficiency of LNPs by plate reader (luminescence)
Type: cell-based
Conditions: LNP-SamRNA-Luc formulated with the lipid, incubated overnight, FIG. 11
Description: (§1) The LNPs containing SamRNA-GFP (or SamRNA-LUC, 100 ng/well) were added into 96-well plate which was pre-seeded with 293T, C2C12 or MC38 cells. After 24 hours incubation at 37° C. and 5% CO2, the luciferase SamRNA transfection efficiency was measured by plate reader (Perkin Elmer Envision 2104). The GFP SamRNA transfection efficiency was measured by flow cytometry (BD FACSymphony™ A5 SE Cell Analyzer).

**Q.** `CCCCCCCCCCCCCC(=O)N(C(CCCCCCCC)CCCCCCCC)C(CC1CCN(C)CC1)C(=O)NC1CCCCCC1` (stereo not shown) [P38D8, N-(1-(cycloheptylamino)-3-(1-methylpiperidin-4-yl)-1-oxopropan-2-yl)-N-(heptadecan-9-yl)tetradecanamide] was tested. Which “bioluminescence signals compared with MC3-LNP-SamRNA-Luc” value did it give?
**A.** stronger bioluminescence signals than MC3-LNP-SamRNA-Luc

**Q.** How did the “bioluminescence signals compared with MC3-LNP-SamRNA-Luc” value turn out when `CCCCCCCCCCC(=O)N(C(CCCCCCC)CCCCCCC)C(C(=O)NCCCC)C1CCN(CC)CC1` (stereo not shown) [P16B1, N-(2-(butylamino)-1-(1-ethylpiperidin-4-yl)-2-oxoethyl)-N-(pentadecan-8-yl)undecanamide] was run?
**A.** stronger bioluminescence signals than MC3-LNP-SamRNA-Luc

**Q.** For `CCCCCCCCCCCC(CCCCCCCCCCC)N(C(=O)CCCCCCCCC)C(C(=O)NC(C)(C)C)C1CCN(CC)CC1` (stereo not shown) [P53A5, N-(2-(tert-butylamino)-1-(1-ethylpiperidin-4-yl)-2-oxoethyl)-N-(tricosan-12-yl)decanamide], which “bioluminescence signals compared with MC3-LNP-SamRNA-Luc” value is on record?
**A.** stronger bioluminescence signals than MC3-LNP-SamRNA-Luc

**Q.** For `CCCCCCCCCCCCCC(=O)N(C(CCCCCCC)CCCCCCC)C(C(=O)NC1CCCCCC1)C1CCN(CC)CC1` (stereo not shown) [P38D1, N-(2-(cycloheptylamino)-1-(1-ethylpiperidin-4-yl)-2-oxoethyl)-N-(pentadecan-8-yl)tetradecanamide], which “bioluminescence signals compared with MC3-LNP-SamRNA-Luc” value is on record?
**A.** stronger bioluminescence signals than MC3-LNP-SamRNA-Luc

**Q.** How did the “bioluminescence signals compared with MC3-LNP-SamRNA-Luc” value turn out when `CCCCCCCCCCCC(=O)N(CC(CCCCCCCC)CCCCCCCCCC)C(CC1CCN(C)CC1)C(=O)NC1CCCCCC1` (stereo not shown) [P40C10, N-(1-(cycloheptylamino)-3-(1-methylpiperidin-4-yl)-1-oxopropan-2-yl)-N-(2-octyldodecyl)dodecanamide] was run?
**A.** stronger bioluminescence signals than MC3-LNP-SamRNA-Luc

**Q.** With `CCCCCCCCCCCCC(CCCCCCCCCC)CN(C(=O)CCCCCCCCC)C(C(=O)NC(C)(C)C)C1CCN(CC)CC1` (stereo not shown) [P53A6, N-(2-(tert-butylamino)-1-(1-ethylpiperidin-4-yl)-2-oxoethyl)-N-(2-decyltetradecyl)decanamide] as the compound, how does the “bioluminescence signals compared with MC3-LNP-SamRNA-Luc” value read?
**A.** stronger bioluminescence signals than MC3-LNP-SamRNA-Luc

**Q.** Which “bioluminescence signals compared with MC3-LNP-SamRNA-Luc” value does the source give for `CCCCCCCCCCCC(=O)N(C(CCCCCCCCCCC)CCCCCCCCCCC)C(CC1CCN(C)CC1)C(=O)NC1CCCCCC1` (stereo not shown) [P40C11, N-(1-(cycloheptylamino)-3-(1-methylpiperidin-4-yl)-1-oxopropan-2-yl)-N-(tricosan-12-yl)dodecanamide] here?
**A.** stronger bioluminescence signals than MC3-LNP-SamRNA-Luc

**Q.** Which “bioluminescence signals compared with MC3-LNP-SamRNA-Luc” value does the source give for `CCCCCCCCCCCCCCCC(=O)N(C(CCCCCCC)CCCCCCC)C(C(=O)NC12CC3CC(CC(C3)C1)C2)C1CCN(CC)CC1` (stereo not shown) [P56A1, N-(2-(((1s,3s)-adamantan-1-yl)amino)-1-(1-ethylpiperidin-4-yl)-2-oxoethyl)-N-(pentadecan-8-yl)palmitamide] here?
**A.** stronger bioluminescence signals than MC3-LNP-SamRNA-Luc

**Q.** Which “bioluminescence signals compared with MC3-LNP-SamRNA-Luc” value does the source give for `CCCCCCCCCCCCC(=O)N(CC(CCCCCCCCCC)CCCCCCCCCCCC)C(CC1CCN(C)CC1)C(=O)NC(C)(C)C` (stereo not shown) [P51C12, N-(1-(tert-butylamino)-3-(1-methylpiperidin-4-yl)-1-oxopropan-2-yl)-N-(2-decyltetradecyl)tridecanamide] here?
**A.** stronger bioluminescence signals than MC3-LNP-SamRNA-Luc

**Q.** How did the “bioluminescence signals compared with MC3-LNP-SamRNA-Luc” value turn out when `CCCCCCCCCCCCCC(=O)N(C(CCCCCCC)CCCCCCC)C(CC1CCN(C)CC1)C(=O)NC1CCCCCC1` (stereo not shown) [P38D7, N-(1-(cycloheptylamino)-3-(1-methylpiperidin-4-yl)-1-oxopropan-2-yl)-N-(pentadecan-8-yl)tetradecanamide] was run?
**A.** stronger bioluminescence signals than MC3-LNP-SamRNA-Luc

**Q.** Which “bioluminescence signals compared with MC3-LNP-SamRNA-Luc” value does the source give for `CCCCCCCCCCCCC(CCCCCCCCCC)CN(C(=O)CCCCCCCCCC)C(C(=O)NC12CC3CC(CC(C3)C1)C2)C1CCN(CC)CC1` (stereo not shown) [P54B6, N-(2-(((1s,3s)-adamantan-1-yl)amino)-1-(1-ethylpiperidin-4-yl)-2-oxoethyl)-N-(2-decyltetradecyl)undecanamide] here?
**A.** stronger bioluminescence signals than MC3-LNP-SamRNA-Luc

**Q.** How did the “bioluminescence signals compared with MC3-LNP-SamRNA-Luc” value turn out when `CCCCCCCCCCC(=O)N(CC(CCCCCCCC)CCCCCCCCCC)C(CC1CCN(C)CC1)C(=O)NC1CCCCCC1` (stereo not shown) [P40B10, N-(1-(cycloheptylamino)-3-(1-methylpiperidin-4-yl)-1-oxopropan-2-yl)-N-(2-octyldodecyl)undecanamide] was run?
**A.** stronger bioluminescence signals than MC3-LNP-SamRNA-Luc

**Q.** With `CCCCCCCCCCCCCCCCCC(=O)N(C(CCCCCCC)CCCCCCC)C(CC1CCN(C)CC1)C(=O)NC1CCCCC1` (stereo not shown) [P30C7, N-(1-(cyclohexylamino)-3-(1-methylpiperidin-4-yl)-1-oxopropan-2-yl)-N-(pentadecan-8-yl)stearamide] as the compound, how does the “bioluminescence signals compared with MC3-LNP-SamRNA-Luc” value read?
**A.** stronger bioluminescence signals than MC3-LNP-SamRNA-Luc

**Q.** For `CCCCCCCCCCCCCCCC(=O)N(C(CCCCCCCC)CCCCCCCC)C(C(=O)NC1=CCCCC1)C1CCN(CC)CC1` (stereo not shown) [P6A2, N-(2-(cyclohex-1-en-1-ylamino)-1-(1-ethylpiperidin-4-yl)-2-oxoethyl)-N-(heptadecan-9-yl)palmitamide], which “bioluminescence signals compared with MC3-LNP-SamRNA-Luc” value is on record?
**A.** stronger bioluminescence signals than MC3-LNP-SamRNA-Luc

**Q.** For `CCCCCCCCCCCCCCCCC(=O)N(C(CCCCCCC)CCCCCCC)C(CC1CCN(C)CC1)C(=O)NC1CCCCC1` (stereo not shown) [P30B7, N-(1-(cyclohexylamino)-3-(1-methylpiperidin-4-yl)-1-oxopropan-2-yl)-N-(pentadecan-8-yl)heptadecanamide], which “bioluminescence signals compared with MC3-LNP-SamRNA-Luc” value is on record?
**A.** stronger bioluminescence signals than MC3-LNP-SamRNA-Luc

**Q.** For `CCCCCCCCCCCCCCCC(=O)N(C(CCCCCCC)CCCCCCC)C(C(=O)NC1CCCCC1)C1CCN(CC)CC1` (stereo not shown) [P30A1, N-(2-(cyclohexylamino)-1-(1-ethylpiperidin-4-yl)-2-oxoethyl)-N-(pentadecan-8-yl)palmitamide], which “bioluminescence signals compared with MC3-LNP-SamRNA-Luc” value is on record?
**A.** stronger bioluminescence signals than MC3-LNP-SamRNA-Luc

**Q.** `CCCCCCCCC(CCCCCCCC)N(C(=O)CCCCCCC)C(C(=O)NCCCC)C1CCN(CC)CC1` (stereo not shown) [P14A2, N-(2-(butylamino)-1-(1-ethylpiperidin-4-yl)-2-oxoethyl)-N-(heptadecan-9-yl)octanamide] was tested. Which “bioluminescence signals compared with MC3-LNP-SamRNA-Luc” value did it give?
**A.** stronger bioluminescence signals than MC3-LNP-SamRNA-Luc

**Q.** Which “bioluminescence signals compared with MC3-LNP-SamRNA-Luc” value does the source give for `CCCCCCCCCCCCC(=O)N(C(CCCCCCC)CCCCCCC)C(C(=O)NCC(=O)OCC)C1CCN(CC)CC1` (stereo not shown) [P1C1, Ethyl (2-(1-ethylpiperidin-4-yl)-2-(N-(pentadecan-8-yl)tridecanamido)acetyl)glycinate] here?
**A.** stronger bioluminescence signals than MC3-LNP-SamRNA-Luc

**Q.** With `CCCCCCCCCCCCCCC(=O)N(C(CCCCCCC)CCCCCCC)C(CC1CCN(C)CC1)C(=O)NC1CCCCCC1` (stereo not shown) [P40D7, N-(1-(cycloheptylamino)-3-(1-methylpiperidin-4-yl)-1-oxopropan-2-yl)-N-(pentadecan-8-yl)pentadecanamide] as the compound, how does the “bioluminescence signals compared with MC3-LNP-SamRNA-Luc” value read?
**A.** stronger bioluminescence signals than MC3-LNP-SamRNA-Luc

**Q.** Which “bioluminescence signals compared with MC3-LNP-SamRNA-Luc” value does the source give for `CCCCCCCCCCCCCC(=O)N(CC(CCCCCCCC)CCCCCCCCCC)C(C(=O)NCC(=O)OCC)C1CCN(CC)CC1` (stereo not shown) [P1D4, Ethyl (2-(1-ethylpiperidin-4-yl)-2-(N-(2-octyldodecyl)tetradecanamido)acetyl)glycinate] here?
**A.** stronger bioluminescence signals than MC3-LNP-SamRNA-Luc

**Q.** Which “bioluminescence signals compared with MC3-LNP-SamRNA-Luc” value does the source give for `CCCCCCCCCCCCCC(=O)N(CC(CCCCCCCC)CCCCCCCCCC)C(C(=O)NC1CCCCC1)C1CCN(CC)CC1` (stereo not shown) [P26D4, N-(2-(cyclohexylamino)-1-(1-ethylpiperidin-4-yl)-2-oxoethyl)-N-(2-octyldodecyl) tetradecanamide] here?
**A.** stronger bioluminescence signals than MC3-LNP-SamRNA-Luc

**Q.** For `CCCCCCCCCCCCCCCCC(=O)N(C(CCCCCCC)CCCCCCC)C(C(=O)NC12CC3CC(CC(C3)C1)C2)C1CCN(CC)CC1` (stereo not shown) [P56B1, N-(2-(((1s,3s)-adamantan-1-yl)amino)-1-(1-ethylpiperidin-4-yl)-2-oxoethyl)-N-(pentadecan-8-yl)heptadecanamide], which “bioluminescence signals compared with MC3-LNP-SamRNA-Luc” value is on record?
**A.** stronger bioluminescence signals than MC3-LNP-SamRNA-Luc

Tested on: 293T, C2C12 or MC38 cells
Assay: SamRNA-GFP transfection efficiency of LNPs by flow cytometry
Type: cell-based
Conditions: LNP-SamRNA-GFP formulated with the lipid; FIGS. 4-6, 8-10
Description: The delivery system used to deliver the GFP-mRNA transfect are LNPs formulated using 12 individual ionizable lipids synthesized by three-component reactions. To generate the LNP encapsulated self-amplifying mRNA, the ionizable lipids of the present disclosure were dissolved in ethanol and directly added into an ethanol solution containing DOPE, cholesterol and DMG-PEG2000 at predetermined molar ratio. Self-amplifying mRNA encoding GFP sequences aqueous solution was mixed and the LNP mixture (100 ng mRNA) was added to a 96-well plate pre-seeded with MC38, C2C12 or 293T cells. The cells were incubated at 5% CO2 and 37° C. overnight. The GFP mRNA transfection efficiency was measured by flow cytometry.
E6, an ionizable lipid of the disclosure, was formulated into LNPs with 1,2-Dioleoyl-sn-glycero-3-phosphoethanolamine (DOPE), cholesterol (Chol), methoxypolyethylene glycol (DMG-PEG2000) with a mole ratio of 50/10/38.5/1.5 (ionizable lipid/DOPE/Chol/DMG-PEG2000) encapsulated self-amplifying mRNA or DNA encoding with reporter genes either green fluorescent protein (samRNA-GFP or DNA-CMV-EGFP) or firefly Luciferase (samRNA-LUC). Formulations containing 100 ng of self-amplifying mRNA were incubated to a well of 96-well plate with 60-70% confluent of HEK293, or C2C12, or MC38 cells (FIGS. 10, 23). The transfection efficiency was determined by flow cytometry for detection of GFP, or plate reader for detection of luciferase. LNP formulated using FDA approved ionizable lipid MC3 was used as a control (FIG. 10).
as §1

**Q.** `CCCCCCCCN(CCCCCCCC)C(c1ccc(C(c2ccccc2O)N(CCCCCCCC)CCCCCCCC)cc1)c1ccccc1O` (stereo not shown) [TP1A11, 2,2′-(1,4-phenylenebis((dioctylamino)methylene))diphenol] was tested. Which “delivery of mRNA-GFP compared with FDA approved ionizable lipid MC3” value did it give?
**A.** more effectively deliver mRNA-GFP

**Q.** With `CCCCCCCCCCCCCN(CCCCCCCCCCCCC)C(c1ccc(CCCCCCCCCCCC)cc1)c1ccccc1O` (stereo not shown) [TP3F11, 2-((ditridecylamino)(4-dodecylphenyl)methyl)phenol] as the compound, how does the “delivery of mRNA-GFP compared with FDA approved ionizable lipid MC3” value read?
**A.** more effectively deliver mRNA-GFP

**Q.** With `CCCCCCCCCCCCCCN(CCCCCCCCCCCCCC)C(c1ccc(CCCCCCCCCCCC)cc1)c1ccccc1O` (stereo not shown) [TP3G11, 2-((ditetradecylamino)(4-dodecylphenyl)methyl)phenol] as the compound, how does the “delivery of mRNA-GFP compared with FDA approved ionizable lipid MC3” value read?
**A.** more effectively deliver mRNA-GFP
